Test results taken from ChEMBL document CHEMBL1142513, “Efficient solid-phase synthesis of FK228 analogues as potent antitumoral agents” (J Med Chem, 2008).

What was measured:
[1] = tested on: T-24; assay: Growth inhibition of human T24 cells at 5 uM after 3 days by MTT assay; format: functional; conditions: T-24, 72 h, read-out: GI
[2] = tested on: T-24; assay: Antitumor activity against human T24 cells after 3 days by MTT assay; format: functional, cell-based; conditions: T-24, 72 h
[3] = tested on: T-24; assay: Growth inhibition of human T24 cells at 0.5 uM after 3 days by MTT assay; format: functional; conditions: T-24, 72 h, read-out: GI
[4] = tested on: DU-145; assay: Antitumor activity against human DU145 cells after 3 days by MTT assay; format: functional, cell-based; conditions: DU-145, 72 h
[5] = tested on: LNCaP; assay: Antitumor activity against human LNCAP cells after 3 days by MTT assay; format: functional, cell-based; conditions: 72 h
[6] = Antitumor activity against human 253J cells after 3 days by MTT assay; format: functional, cell-based; conditions: 72 h
[7] = tested on: TCC-SUP; assay: Antitumor activity against human TCC-SUP cells after 3 days by MTT assay; format: functional, cell-based; conditions: 72 h
[8] = tested on: PC-3; assay: Antitumor activity against human PC-3 cells after 3 days by MTT assay; format: functional, cell-based; conditions: PC-3, 72 h

Row | Structure (SMILES) | inhibition of growth at 5 µM [1] | IC50 [2] | inhibition of growth at 0.5 µM [3] | IC50 [4] | IC50 [5] | IC50 [6] | IC50 [7] | IC50 [8]
1 | CC(C)[C@H]1NC(=O)C[C@@H]2NC(=O)[C@H](Cc3cccc4ccccc34)NC(=O)[C@H](Cc3cccc4ccccc34)NC(=O)[C@H](CSSCCNC2=O)NC1=O | > 95% | 60 nM | 70% |  |  |  |  | 
2 | CC(C)[C@H]1NC(=O)C[C@@H]2NC(=O)[C@H](Cc3ccccc3)NC(=O)[C@H](Cc3ccccc3)NC(=O)[C@H](CSSCCNC2=O)NC1=O | > 95% | 260 nM | 70% | 180 nM | 270 nM | 180 nM | 380 nM | 600 nM
